In brackets after ≈: the same amount, converted by molar mass.
Legend:
physchem = conditions: FaSSIF, 23 °C, thermodynamic from solid
HIV-1 (IIIB) = assay: microbe, parasite or virus in culture; format: cell-based; conditions: Human immunodeficiency virus 1, MT4, 120 h; HIV-1 (IIIB) replication in MT-4 cells, 5 days, Cell Titer Glo; read-out: MT4 EC50
in vitro = conditions: human, uninfected MT-4 cells

Structure (SMILES)	solubility thermodynamic at 24 h (physchem) [µg/mL]	EC50 (HIV-1 (IIIB)) [µM]	CC50 at 5 days (in vitro) [µM]
CC1=NO[C@@]2(CC[C@H](C)N3C[C@H]2n2cc(C(=O)NCc4ccc(F)cc4F)c(=O)c(OCOC(=O)C(C)(C)CCN(CC(=O)O)C(=O)OCOP(=O)(O)O)c2C3=O)C1 [Compound 43, N-(4-((((3′S,5S,7′R)-10′-((2,4-difluorobenzyl)carbamoyl)-3,3′-dimethyl-1′,11′-dioxo-1′,4′,5′,11′-tetrahydro-3′H,4H,7′H-spiro[isoxazole-5,6′-[2,7]methanopyrido[1,2-a][1,4]diazonin]-12′-yl)oxy)methoxy)-3,3-dimethyl-4-oxobutyl)-N-(((phosphonooxy)methoxy)carbonyl)glycine]	5420 (≈ 6.43 mM)	0.00177	8.46
COC1=NO[C@@]2(CC[C@H](C)N3C[C@H]2n2cc(C(=O)NCc4ccc(F)cc4F)c(=O)c(OCOC(=O)O[C@H](C)COP(=O)(O)O)c2C3=O)C1 [Compound 54, (((3′S,5S,7′R)-10′-((2,4-difluorobenzyl)carbamoyl)-3-methoxy-3′-methyl-1′,11′-dioxo-1′,4′,5′,11′-tetrahydro-3′H,4H,7′H-spiro[isoxazole-5,6′-[2,7]methanopyrido[1,2-a][1,4]diazonin]-12′-yl)oxy)methyl ((R)-1-(phosphonooxy)propan-2-yl) carbonate]	4660 (≈ 6.51 mM)	0.00432	15.5
CC1=NO[C@@]2(CC[C@H](C)N3C[C@H]2n2cc(C(=O)NCc4ccc(F)cc4F)c(=O)c(OCOC(=O)O[C@@H](C)[C@@H](C)OP(=O)(O)O)c2C3=O)C1 [Compound 57, (((3′S,5S,7′R)-10′-((2,4-difluorobenzyl)carbamoyl)-3,3′-dimethyl-1′,11′-dioxo-1′,4′,5′,11′-tetrahydro-3′H,4H,7′H-spiro[isoxazole-5,6′-[2,7]methanopyrido[1,2-a][1,4]diazonin]-12′-yl)oxy)methyl ((2S,3R)-3-(phosphonooxy)butan-2-yl) carbonate]	4630 (≈ 6.5 mM)	0.00232	19.9
CC1=NO[C@@]2(CC[C@H](C)N3C[C@H]2n2cc(C(=O)NCc4ccc(F)cc4F)c(=O)c(OCOC(=O)O[C@H](C)[C@H](C)OP(=O)(O)O)c2C3=O)C1 [Compound 58, (((3′S,5S,7′R)-10′-((2,4-difluorobenzyl)carbamoyl)-3,3′-dimethyl-1′,11′-dioxo-1′,4′,5′,11′-tetrahydro-3′H,4H,7′H-spiro[isoxazole-5,6′-[2,7]methanopyrido[1,2-a][1,4]diazonin]-12′-yl)oxy)methyl ((2R,3S)-3-(phosphonooxy)butan-2-yl) carbonate]	4860 (≈ 6.82 mM)	0.00211	24.2
COC1=NO[C@@]2(CC[C@H](C)N3C[C@H]2n2cc(C(=O)NCc4ccc(F)cc4F)c(=O)c(OCOC(=O)O[C@@H](C)[C@@H](C)OP(=O)(O)O)c2C3=O)C1 [Compound 59, (((3′S,5S,7′R)-10′-((2,4-difluorobenzyl)carbamoyl)-3-methoxy-3′-methyl-1′,11′-dioxo-1′,4′,5′,11′-tetrahydro-3′H,4H,7′H-spiro[isoxazole-5,6′-[2,7]methanopyrido[1,2-a][1,4]diazonin]-12′-yl)oxy)methyl ((2S,3R)-3-(phosphonooxy)butan-2-yl) carbonate]	5240 (≈ 7.19 mM)	0.00204	18.8
COC1=NO[C@@]2(CC[C@H](C)N3C[C@H]2n2cc(C(=O)NCc4ccc(F)cc4F)c(=O)c(OCOC(=O)O[C@H](C)[C@H](C)OP(=O)(O)O)c2C3=O)C1 [Compound 60, (((3′S,5S,7′R)-10′-((2,4-difluorobenzyl)carbamoyl)-3-methoxy-3′-methyl-1′,11′-dioxo-1′,4′,5′,11′-tetrahydro-3′H,4H,7′H-spiro[isoxazole-5,6′-[2,7]methanopyrido[1,2-a][1,4]diazonin]-12′-yl)oxy)methyl ((2R,3S)-3-(phosphonooxy)butan-2-yl) carbonate]	4520 (≈ 6.2 mM)	0.0019	23.8
COC1=NO[C@@]2(CC[C@H](C)N3C[C@H]2n2cc(C(=O)NCc4ccc(F)cc4F)c(=O)c(OCOC(=O)O[C@H](C)[C@@H](C)OP(=O)(O)O)c2C3=O)C1 [Compound 61, (((3′S,5S,7′R)-10′-((2,4-difluorobenzyl)carbamoyl)-3-methoxy-3′-methyl-1′,11′-dioxo-1′,4′,5′,11′-tetrahydro-3′H,4H,7′H-spiro[isoxazole-5,6′-[2,7]methanopyrido[1,2-a][1,4]diazonin]-12′-yl)oxy)methyl ((2R,3R)-3-(phosphonooxy)butan-2-yl) carbonate]	4800 (≈ 6.58 mM)	0.00235	20.9
CC1=NO[C@@]2(CC[C@H](C)N3C[C@H]2n2cc(C(=O)NCc4ccc(F)cc4F)c(=O)c(OCOC(=O)OC(C)(C)COP(=O)(O)O)c2C3=O)C1 [Compound 62, (((3′S,5S,7′R)-10′-((2,4-difluorobenzyl)carbamoyl)-3,3′-dimethyl-1′,11′-dioxo-1′,4′,5′,11′-tetrahydro-3′H,4H,7′H-spiro[isoxazole-5,6′-[2,7]methanopyrido[1,2-a][1,4]diazonin]-12′-yl)oxy)methyl (2-methyl-1-(phosphonooxy)propan-2-yl) carbonate]	5040 (≈ 7.08 mM)	0.00258	28.1
COC1=NO[C@@]2(CC[C@H](C)N3C[C@H]2n2cc(C(=O)NCc4ccc(F)cc4F)c(=O)c(OCOC(=O)OC(C)(C)COP(=O)(O)O)c2C3=O)C1 [Compound 63, (((3′S,5S,7′R)-10′-((2,4-difluorobenzyl)carbamoyl)-3-methoxy-3′-methyl-1′,11′-dioxo-1′,4′,5′,11′-tetrahydro-3′H,4H,7′H-spiro[isoxazole-5,6′-[2,7]methanopyrido[1,2-a][1,4]diazonin]-12′-yl)oxy)methyl (2-methyl-1-(phosphonooxy)propan-2-yl) carbonate]	4620 (≈ 6.35 mM)	0.00512	35.4
CC[C@H](COC(=O)OCOc1c2n(cc(C(=O)NCc3ccc(F)cc3F)c1=O)[C@@H]1CN(C2=O)[C@@H](C)CC[C@]12CC(C)=NO2)OP(=O)(O)O [Compound 64, (((3′S,5S,7′R)-10′-((2,4-difluorobenzyl)carbamoyl)-3,3′-dimethyl-1′,11′-dioxo-1′,4′,5′,11′-tetrahydro-3′H,4H,7′H-spiro[isoxazole-5,6′-[2,7]methanopyrido[1,2-a][1,4]diazonin]-12′-yl)oxy)methyl ((R)-2-(phosphonooxy)butyl) carbonate]	4840 (≈ 6.8 mM)	0.00124	13.6
CC[C@H](COC(=O)OCOc1c2n(cc(C(=O)NCc3ccc(F)cc3F)c1=O)[C@@H]1CN(C2=O)[C@@H](C)CC[C@]12CC(OC)=NO2)OP(=O)(O)O [Compound 65, (((3′S,5S,7′R)-10′-((2,4-difluorobenzyl)carbamoyl)-3-methoxy-3′-methyl-1′,11′-dioxo-1′,4′,5′,11′-tetrahydro-3′H,4H,7′H-spiro[isoxazole-5,6′-[2,7]methanopyrido[1,2-a][1,4]diazonin]-12′-yl)oxy)methyl ((R)-2-(phosphonooxy)butyl) carbonate]	3880 (≈ 5.33 mM)	0.00102	14.1

Source: US20250120989A1, “BRIDGED TRICYCLIC CARBAMOYLPYRIDONE COMPOUNDS AND USES THEREOF” (priority 2023, published 2025)
